# Laboratory results as given in US12410148B2, “Antibody drug conjugates” (Pharma Mar, S.A., priority 2013, dated 2025).
# Values joined by “and” are separate entries in the source; they are usually repeats but may differ in a detail not shown here. Equal values may be shown once. Read-outs that look alike come from different tables or passages of the source.
# Legend:
# SK-BR-3 cells = assay: In vitro cytotoxicity, SRB assay, 72 h dose-response; type: cell-based; details: Homo sapiens, SK-BR-3, 72 h, HER2+; 72 h; read-out: IC50
# MDA-MB-231 cells = assay: as above; type: cell-based; details: Homo sapiens, MDA-MB-231, 72 h, HER2−; 72 h; read-out: IC50
# From the text: (§1) Nature Protocols, 1, 1112-1 116.
# HCC-1954 cells = assay: as above; type: cell-based; details: Homo sapiens, HCC1954, 72 h, HER2+; 72 h; read-out: IC50
# From the text: as §1
# MCF-7 cells = assay: as above; type: cell-based; details: Homo sapiens, MCF7, 72 h, HER2−; 72 h; read-out: IC50
# From the text: as §1
# [1] = test system: HCC-1954, SK-BR-3, MDA-MB-231 and MCF-7 cells; assay: In vitro cytotoxicity, whole breast cancer cell panel
# From the text: (§2) All tumor cell lines used in this study were obtained from the American Type Culture Collection (ATCC), unless otherwise indicated; BT-474 (ATCC HTB-20, Breast Ductal Carcinoma), SK-BR-3 (ATCC HTB-30, Breast Adenocarcinoma) and HCC-1954 (ATCC CRL-2338, Breast Ductal Carcinoma), all HER2+; MDA-MB-231 (ATCC HTB-26, Breast Adenocarcinoma) and MCF-7 (ATCC HTB-22 Breast Adenocarcinoma, pleural effusion), all HER2-; SK-OV-3 (ATCC HTB-77, Ovary Adenocarcinoma), HER2+; NB-4 (Acute Promyelocytic Leukemia, APL, CD13+, M. Lanotte et al. (1991) NB4, a maturation inducible cell line with t(15;17) marker isolated from a human acute promyelocytic leukemia (M3). Blood 77, 1080-1086), (CD13+) and U937 (ATCC CRL-1 593.2, Histiocytic Lymphoma, CD13+ and CD4+); Raji (ATCC CCL-86, Burkitt's Lymphoma) (CD13−, CD20+, CD5−, and CD4−); RPMI-8226 (ATCC CRM-CCL-155, Multiple Myeloma) (CD13−, CD20−, CD5− and CD4−); Karpas-299 (DSMZ ACC-31, Non-Hodgkin's Lymphoma) (CD20−, CD5+, and CD4+); MOLT-4 (ATCC CRL-1 582, Acute Lymphoblastic Leukemia, CD5+). In addition, the two Raji cell (ATCC CCL-86, Burkitt's Lymphoma) clones used in this study Raji-clone #10 (high CD5 expression) and Raji-clone18 (null CD5 expression), were provided by Dr. Juan M. Zapata (Instituto de Investigaciones Biomedicas “Alberto Sols”, CSIC-UAM, Madrid, Spain). Cells were maintained at 37° C., 5% CO 2 and 95% humidity in Dulbecco's Modified Eagle's Medium (DMEM) (for MCF and MDA-MB-231 cells), RPMI-1640 (for SK-BR-3, HCC-1954, NB-4, U937, Raji, RPMI-8226, Karpas-299, MOLT-4, Raji-clone #10 and Raji-clone #18 cells), RPMI-1640+1% ITS (for BT-474 cells) or McCOyS (for SK-OV-3 cells), all media supplemented with 10% Fetal Calf Serum (FCS) and 100 units/mL penicillin and streptomycin.
# For adherent cells: A colorimetric assay using sulforhodamine B (SRB) was adapted for quantitative measurement of cell growth and cytotoxicity, as described in V. Vichai and K. Kirtikara (2006) Sulforhodamine B colorimetric assay for cytotoxicity screening. Nature Protocols, 1, 1112-1 116. Briefly, cells were seeded in 96-well microtiter plates and allowed to stand for 24 hours in drug-free medium before treatment with vehicle alone or the indicated compounds for 72 hours. For quantification, cells were washed twice with phosphate buffered saline (PBS), fixed for 15 min in 1% glutaraldehyde solution, rinsed twice with PBS, stained in 0.4% SRB-1% acetic acid solution for 30 min, rinsed several times with 1% acetic acid solution and air-dried. SRB was then extracted in 10 mM trizma base solution and the optical density measured at 490 nm in a microplate spectrophotometer. Cell survival was expressed as percentage of control, untreated cell survival.
# (§3) The IC50 value refers to the concentration of compound inducing a 50% of cell death as compared to the control cell survival.
# Standard dose-response (DR) curves for 72 hours were performed.
# [2] = test system: Raji, RPMI-8226 and Karpas-299 cells; assay: In vitro cytotoxicity, whole CD20 cell panel
# From the text: as §2
# For suspension cells: A standard metabolic assay using MTT (3-(4,5-Dimethylthiazol-2-yl)-2,5-diphenyltetrazolium bromide) was adapted for quantitative measurement of cell growth and cytotoxicity, as described in T. Mosmann (1983) Rapid colorimetric assay for cellular growth and survival: Application to proliferation and cytotoxicity assays. J. Immunol. Meth., 65, 55-63. Briefly, MTT solution was added to the cell cultures at a final concentration of 0.5 mg/mL, and incubated for 1 to 4 hours at 37° C. until formazan crystals are formed. Culture medium is carefully removed from the cell cultures and formazan crystals resuspended in 100 μl DMSO. After mixing to assure solubilization, the quantity of formazan (presumably directly proportional to the number of viable cells) is measured by recording changes in absorbance at 570 nm using a plate reading spectrophotometer. Cell survival was expressed as percentage of control, untreated cell survival.
# as §3
# The in vitro cytotoxic activity of ADC12 along with the parent cytotoxic Compounds 1, 4, and 40, was evaluated was assayed against different human cancer cell lines expressing or not the CD20 antigen, including Raji (CD20 positive cells); RPMI-8226 and Karpas-299 (CD20 negative cells). Standard dose-response (DR) curves for 72 hours were performed.
# [3] = Homo sapiens, read-out: IC50 values along the different cell lines tested (range), four breast cell lines
# [4] = Homo sapiens, read-out: mean IC50 value across the whole cell panel, four breast cell lines
# [5] = read-out: mean IC50 value across the whole cell panel, four breast cell lines
Molecule,IC50 (SK-BR-3 cells),IC50 (MDA-MB-231 cells),IC50 (HCC-1954 cells),IC50 (MCF-7 cells),"IC50 [1, 3]","IC50 [1, 4]",mean IC50 value across the whole cell panel ([1]; four breast cell lines),"IC50 [1, 5]",decrease of cytotoxic activity as compared to Compound 40 ([1]; thiol containing tail),"decrease of cytotoxic activity as compared to Compound 41 ([1]; 1,3-propylenediamine group)","IC50 ([1]; Homo sapiens, read-out: IC50 values across the different cell lines tested (range), four breast cell lines)",cytotoxic activity ([2]; 50 μg/mL),cytotoxic activity in DR curves ([2]; 5.0E+01 to 2.62E-05 μg/mL)
C/C=C\C[C@@H](C/C=C\NC(=O)[C@@H](NC(=O)\C=C/C=C\C(C)=C\[C@H](C)[C@@H]1CC=C(OC)C(=O)O1)C(C)(C)C)OC(=O)NCCCNC(=O)CCCCCN1C(=O)C=CC1=O [Compound 5],0.019 µg/mL and 23.2 nM,0.057 µg/mL and 69.4 nM,0.0195 µg/mL and 23.8 nM,0.0775 µg/mL and 94.1 nM,0.019 µg/mL to 0.077 µg/mL and 23.2 nM to 94.1 nM,0.0433 µg/mL and 52.6 nM,–,–,–,–,–,–,–
C/C=C\C[C@@H](C/C=C\NC(=O)[C@@H](NC(=O)\C=C/C=C\C(C)=C\[C@H](C)[C@@H]1CC=C(OC)C(=O)O1)C(C)(C)C)OC(=O)NCCCN [Compound 8],0.0034 µg/mL and 5.41 nM,0.00655 µg/mL and 10.4 nM,0.0054 µg/mL and 8.59 nM,0.00675 µg/mL and 10.7 nM,0.0034 µg/mL to 0.00675 µg/mL and 2.94 nM to 15.1 nM,0.00553 µg/mL and 8.79 nM,5.45 ng/mL,8.67 nM,–,–,–,–,–
COC1=CC[C@@H]([C@@H](C)/C=C(C)/C=C\C=C/C(=O)N[C@H](C(=O)N/C=C\C[C@H](C/C=C(\C)Cl)OC(=O)NCCCS)C(C)(C)C)OC1=O [Compound 15],0.00048 µg/mL and 0.706 nM,0.00149 µg/mL and 2.19 nM,0.000675 µg/mL and 0.994 nM,0.00145 µg/mL and 2.14 nM,0.00048 µg/mL to 0.00149 µg/mL and 0.706 nM to 2.19 nM,0.00103 µg/mL and 1.51 nM,–,–,about 8 fold,–,–,–,–
C/C=C\C[C@@H](C/C=C\NC(=O)[C@@H](NC(=O)\C=C/C=C\C(C)=C\[C@H](C)[C@@H]1CC=C(OC)C(=O)O1)C(C)(C)C)OC(=O)NCCCNC(=O)CCS [Compound 18],0.0044 µg/mL and 6.14 nM,0.0115 µg/mL and 16 nM,0.00805 µg/mL and 11.2 nM,0.0185 µg/mL and 25.8 nM,0.0044 µg/mL to 0.0185 µg/mL and 6.14 nM to 25.8 nM,0.0106 µg/mL and 14.8 nM,–,–,–,–,–,–,–
CC#CC[C@@H](C/C=C\NC(=O)[C@@H](NC(=O)\C=C/C=C\C(C)=C\[C@H](C)[C@@H]1CC=C(OC)C(=O)O1)C(C)(C)C)OC(=O)NCCCN [Compound 24],0.009 µg/mL and 14.4 nM,0.0175 µg/mL and 27.9 nM,0.018 µg/mL and 28.7 nM,0.0165 µg/mL and 26.3 nM,14 nM to 28 nM and 0.009 µg/mL to 0.018 µg/mL,0.015 µg/mL and 24 nM,24 nM,–,–,about 2 logs,9 to 18 ng/mL,–,–
CC#CC[C@@H](C/C=C\NC(=O)[C@@H](NC(=O)\C=C/C=C\C(C)=C\[C@H](C)[C@@H]1CC=C(OC)C(=O)O1)C(C)(C)C)OC(=O)NCCCNC(=O)CCCCCN1C(=O)C=CC1=O [Compound 25],0.0255 µg/mL and 31.1 nM,> 0.1 µg/mL and > 122 nM,0.044 µg/mL and 53.7 nM,0.053 µg/mL and 64.6 nM,0.025 µg/mL to 0.053 µg/mL and 31 nM to 65 nM,41 ng/mL,49 nM,–,–,–,–,–,–
CC#CC[C@@H](C/C=C\NC(=O)[C@@H](NC(=O)\C=C/C=C\C(C)=C\[C@H](C)[C@@H]1CC=C(OC)C(=O)O1)C(C)(C)C)OC(=O)NCCCNC(=O)CCS [Compound 27],0.0105 µg/mL and 14.7 nM,0.0345 µg/mL and 48.3 nM,0.0165 µg/mL and 23.1 nM,0.039 µg/mL and 54.6 nM,0.0105 µg/mL to 0.039 µg/mL and 15 nM to 55 nM,0.025 µg/mL and 35 nM,–,–,–,–,–,–,–
CC#CC[C@@H](C/C=C\NC(=O)[C@@H](NC(=O)\C=C/C=C\C(C)=C\[C@H](C)[C@@H]1CC=C(OC)C(=O)O1)C(C)(C)C)OC(N)=O [Compound 41],0.00011 µg/mL and 0.193 nM,0.00018 µg/mL and 0.316 nM,0.000104 µg/mL and 0.183 nM,0.000265 µg/mL and 0.465 nM,0.075 to 0.14 ng/mL,0.00016 µg/mL and 0.29 nM,–,0.19 nM,–,–,–,–,–
Rituximab: anti-CD20 monoclonal antibody [reference compound],–,–,–,–,–,–,–,–,–,–,–,virtually inactive,rather inactive
